From patent publication US5977063A, “Alkylated hexapeptides” (Eli Lilly and Company, priority 1998, dated 1999)

What was measured:
Type in all cases: cell-based
[1] = system: Enterococcus faecium and faecalis (RESISTANT); details: geometric mean of 4-6 isolates
Description: (§1) The antibacterial efficacy of the present compounds is illustrated by Table II. The minimal inhibitory concentrations (MICs) were determined using a standard broth micro-dilution assay.

[2] = system: Enterococcus faecium and faecalis (SENSITIVE); test: MIC, standard broth micro-dilution assay, SENSITIVE enterococci; parameters: unit not given here; details: geometric mean of 4-6 isolates
Description: as §1

[3] = system: Staphylococcus aureus 446; test: MIC, standard broth micro-dilution assay, SA 446; parameters: unit not given here
Description: as §1

[4] = system: Staphylococcus aureus 489; test: MIC, standard broth micro-dilution assay, SA 489; parameters: unit not given here
Description: as §1

[5] = system: Staphylococcus aureus 447; test: MIC, standard broth micro-dilution assay, SA 447; parameters: unit not given here
Description: as §1

[6] = system: Staphylococcus haemolyticus 105; test: MIC, standard broth micro-dilution assay, SH 105; parameters: unit not given here
Description: as §1

[7] = system: Staphylococcus haemolyticus 415; test: MIC, standard broth micro-dilution assay, SH 415; parameters: unit not given here
Description: as §1

[8] = system: Staphylococcus epidermidis 270; test: MIC, standard broth micro-dilution assay, SE 270; parameters: unit not given here
Description: as §1

[9] = system: Streptococcus pyogenes C203; test: MIC, standard broth micro-dilution assay, SPY C203; parameters: unit not given here
Description: as §1

[10] = system: Streptococcus pneumoniae P1; test: MIC, standard broth micro-dilution assay, SPN P1; parameters: unit not given here
Description: as §1

Row | SMILES | Minimal Inhibitory Concentration (MIC) RESISTANT [1] | Minimal Inhibitory Concentration (MIC) SENSITIVE [2] | Minimal Inhibitory Concentration (MIC) SA 446 [3] | Minimal Inhibitory Concentration (MIC) SA 489 [4] | Minimal Inhibitory Concentration (MIC) SA 447 [5] | Minimal Inhibitory Concentration (MIC) SH 105 [6] | Minimal Inhibitory Concentration (MIC) SH 415 [7] | Minimal Inhibitory Concentration (MIC) SE 270 [8] | Minimal Inhibitory Concentration (MIC) SPY C203 [9] | Minimal Inhibitory Concentration (MIC) SPN P1 [10]
1 | CC1OC(OC2c3ccc(c(Cl)c3)Oc3cc4cc(c3OC3OC(CO)C(O)C(O)C3OC3CC(C)(N)C(O)C(C)O3)Oc3ccc(cc3Cl)C(O)C(NCCCCCCCCCCCCc3ccccc3)C(=O)NC(CC(N)=O)C(=O)NC4C(=O)NC3C(=O)NC2C(=O)NC(C(=O)O)c2cc(O)cc(O)c2-c2cc3ccc2O)CC(C)(N)C1O (stereo not drawn) [Example 1, N^1 -(12-PHENYL-n-DODECYL)DESLEUCYL-A82846B] | 13 | 9.2 | 8 | 2 | 2 | 4 | 8 | 4 | 0.125 | –
2 | C[C@@H]1O[C@@H](O[C@@H]2c3ccc(c(Cl)c3)Oc3cc4cc(c3O[C@@H]3O[C@H](CO)[C@@H](O)[C@H](O)[C@H]3O[C@H]3C[C@](C)(NCc5ccc(-c6ccccc6)cc5)[C@@H](O)[C@H](C)O3)Oc3ccc(cc3Cl)[C@@H](O)[C@@H](NCCCCCCCCCCCCc3ccccc3)C(=O)N[C@@H](CC(N)=O)C(=O)N[C@H]4C(=O)N[C@H]3C(=O)N[C@@H]2C(=O)N[C@H](C(=O)O)c2cc(O)cc(O)c2-c2cc3ccc2O)C[C@](C)(N)[C@H]1O [Example 2, N^1 -(12-PHENYL-n-DODECYL)-N^DISACC -(p-PHENYLBENZYL)-DESLEUCYL-A82846B] | 45 | 24 | 32 | 64 | > 64 | > 64 | > 64 | 32 | 4 | ≤ .06
3 | C[C@@H]1O[C@@H](O[C@H]2[C@H](Oc3c4cc5cc3Oc3ccc(cc3Cl)[C@@H](O[C@H]3C[C@](C)(N)[C@@H](O)[C@H](C)O3)[C@@H]3NC(=O)[C@H](NC(=O)[C@@H]5NC(=O)[C@H](CC(N)=O)NC(=O)[C@H](NCc5ccc(-c6ccccc6)cc5)[C@H](O)c5ccc(c(Cl)c5)O4)c4ccc(O)c(c4)-c4c(O)cc(O)cc4[C@@H](C(=O)O)NC3=O)O[C@H](CO)[C@@H](O)[C@@H]2O)C[C@](C)(N)[C@H]1O [Example 3, N^1- (p-PHENYLBENZYL)-DESLEUCYL-A82846B] | > 128 | 21 | 8 | 8 | 8 | 8 | 16 | 8 | ≤ .06 | ≤ .06
4 | C[C@@H]1O[C@@H](O[C@@H]2c3ccc(c(Cl)c3)Oc3cc4cc(c3O[C@@H]3O[C@H](CO)[C@@H](O)[C@H](O)[C@H]3O[C@H]3C[C@](C)(NCc5ccc(-c6ccccc6)cc5)[C@@H](O)[C@H](C)O3)Oc3ccc(cc3Cl)[C@@H](O)[C@@H](NCc3ccc(-c5ccccc5)cc3)C(=O)N[C@@H](CC(N)=O)C(=O)N[C@H]4C(=O)N[C@H]3C(=O)N[C@@H]2C(=O)N[C@H](C(=O)O)c2cc(O)cc(O)c2-c2cc3ccc2O)C[C@](C)(N)[C@H]1O [Example 4, N^1,N^DISACC -BIS(p-PHENYLBENZYL)-DESLEUCYL-A82846B] | 53 | 21 | 4 | 2 | 2 | 2 | 2 | 2 | ≤ .06 | ≤ .06
